What was measured:
[1] = biological target: T1, MMP-1 (Homo sapiens, UniProt P03956); test: MMP-1 of Table 1; assay type: biochemical; conditions: for MMP-1: unit not given; for IC50: unit inferred
T1 sequence (P03956 100-469): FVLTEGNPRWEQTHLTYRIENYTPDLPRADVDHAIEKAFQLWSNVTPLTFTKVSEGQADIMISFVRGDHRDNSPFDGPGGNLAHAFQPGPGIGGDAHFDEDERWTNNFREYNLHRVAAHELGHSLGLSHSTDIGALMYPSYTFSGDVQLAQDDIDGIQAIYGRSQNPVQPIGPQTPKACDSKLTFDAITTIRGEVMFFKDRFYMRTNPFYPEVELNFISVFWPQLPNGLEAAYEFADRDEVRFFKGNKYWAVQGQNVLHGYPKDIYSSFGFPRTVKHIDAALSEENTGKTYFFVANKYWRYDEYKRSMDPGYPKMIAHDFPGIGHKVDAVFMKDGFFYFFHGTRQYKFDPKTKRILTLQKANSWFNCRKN

[2] = biological target: T2, recombinant human catalytic domain of MMP-14 (Homo sapiens, UniProt P50281); test: In vitro fluorescence assay of MMP-14 activity; assay type: biochemical; conditions: Table 1; for MMP-14: unit not given; for IC50: unit inferred
T2 construct: 177 amino acids corresponding to Tyr89-Gly265 of mature human enzyme; purchased Chemicon International, Inc. CC1041

[3] = biological target: T3, purified recombinant human Aggrecanase-2 (Ag2t-Phe628-Strep) (Homo sapiens, UniProt Q9UNA0); test: In vitro fluorescence screen for Aggrecanase-2 inhibitors; assay type: biochemical; conditions: Table 1; read-out: Agg 2 IC50
T3 construct: the form used is denoted as Ag2t-Phe628-Strep (MW=41,737)
T3 sequence (Q9UNA0 262-628): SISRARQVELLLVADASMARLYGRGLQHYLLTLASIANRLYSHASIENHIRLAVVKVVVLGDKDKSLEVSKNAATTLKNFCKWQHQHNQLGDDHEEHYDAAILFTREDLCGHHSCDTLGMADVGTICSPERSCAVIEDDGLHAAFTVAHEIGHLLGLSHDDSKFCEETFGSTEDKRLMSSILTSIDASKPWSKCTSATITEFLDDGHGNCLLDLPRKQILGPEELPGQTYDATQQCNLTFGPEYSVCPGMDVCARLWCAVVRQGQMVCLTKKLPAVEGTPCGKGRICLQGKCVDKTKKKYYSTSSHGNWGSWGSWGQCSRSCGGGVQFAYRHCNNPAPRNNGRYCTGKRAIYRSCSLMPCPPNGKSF

[4] = biological target: T4, recombinant human catalytic domain of MMP-13 (Homo sapiens, UniProt P45452); test: In vitro fluorescence assay of MMP-13 activity; assay type: biochemical; conditions: Table 1; unit inferred
T4 construct: catalytic domain of MMP-13 (165 amino acids, residues 104-268, 19 kDa)

[5] = biological target: T5, purified recombinant human Aggrecanase-1 (rAgg1) (Homo sapiens, UniProt O75173); test: In vitro fluorescence screen for Aggrecanase-1 inhibitors; assay type: biochemical; conditions: Table 1; for IC50: read-out: Agg1 IC50; for Ki: enzyme not given, column follows Agg1 IC50, read-out: Ki
T5 sequence (O75173 213-837): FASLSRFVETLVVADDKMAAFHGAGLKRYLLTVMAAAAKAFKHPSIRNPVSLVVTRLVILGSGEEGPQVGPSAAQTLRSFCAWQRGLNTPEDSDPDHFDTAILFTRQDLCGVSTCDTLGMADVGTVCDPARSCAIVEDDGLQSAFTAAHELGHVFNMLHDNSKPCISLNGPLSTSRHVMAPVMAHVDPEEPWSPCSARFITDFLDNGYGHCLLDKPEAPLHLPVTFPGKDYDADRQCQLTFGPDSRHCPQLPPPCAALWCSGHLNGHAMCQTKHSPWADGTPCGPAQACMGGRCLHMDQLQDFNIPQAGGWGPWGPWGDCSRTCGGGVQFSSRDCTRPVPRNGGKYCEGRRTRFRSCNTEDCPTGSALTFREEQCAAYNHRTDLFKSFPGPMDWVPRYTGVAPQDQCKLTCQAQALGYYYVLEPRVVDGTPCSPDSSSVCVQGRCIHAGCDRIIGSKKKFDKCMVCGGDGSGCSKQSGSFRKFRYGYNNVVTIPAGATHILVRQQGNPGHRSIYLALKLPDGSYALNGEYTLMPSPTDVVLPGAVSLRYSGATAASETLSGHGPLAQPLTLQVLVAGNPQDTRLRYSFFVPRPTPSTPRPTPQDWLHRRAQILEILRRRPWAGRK

[6] = biological target: T6, recombinant human MMP-2 (Homo sapiens, UniProt P08253); test: In vitro fluorescence assay of MMP-2 activity
T6 sequence (P08253 110-660): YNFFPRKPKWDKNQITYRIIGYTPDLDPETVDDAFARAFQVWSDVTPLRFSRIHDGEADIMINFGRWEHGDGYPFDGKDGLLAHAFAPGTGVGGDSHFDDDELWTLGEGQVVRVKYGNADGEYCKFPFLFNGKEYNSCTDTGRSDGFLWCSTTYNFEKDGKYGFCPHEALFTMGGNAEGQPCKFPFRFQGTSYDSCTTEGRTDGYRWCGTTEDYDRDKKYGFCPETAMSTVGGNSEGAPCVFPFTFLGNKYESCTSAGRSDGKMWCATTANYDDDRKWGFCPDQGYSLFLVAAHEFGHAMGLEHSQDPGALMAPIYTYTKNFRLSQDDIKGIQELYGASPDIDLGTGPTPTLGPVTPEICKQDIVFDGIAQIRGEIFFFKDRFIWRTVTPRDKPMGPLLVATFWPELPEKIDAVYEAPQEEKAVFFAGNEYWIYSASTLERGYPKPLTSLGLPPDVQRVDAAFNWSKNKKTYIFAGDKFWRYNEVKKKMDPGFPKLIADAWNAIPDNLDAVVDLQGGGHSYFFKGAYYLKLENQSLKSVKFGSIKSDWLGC
Description: A continuous assay was used in which the substrate is a synthetic peptide containing a fluorescent group (7-methoxycoumarin; Mca), which is quenched by energy transfer to a 2,4-dinitrophenyl group. […] The source of enzyme in the assay was the recombinant human MMP-2 (66 kDa; Oncogene Research Products (catalog number PF023 from Calbiochem)). The substrate used was the peptide Mca-PQGL-(3-[2,4-dinitrophenyl]-L-2,3-diaminopropionyl)-AR-OH. The assay buffer consisted of 50 mM Hepes (pH 7.4), 100 mM NaCl, 5 mM CaCl2, and 0.005% Brij-35. […] The plates were then incubated at 30° C. for 15 minutes. The enzymatic reactions were initiated by adding the substrate to a final concentration of 20 μM, and mixing 10 times with a pipette. The final DMSO concentration in the assay was 6.0%.
Plots of the inhibitor concentration vs. the percent inhibition were fit to the following equation: y=(a−d)/[^1+(x/c)^b]+d, a general sigmoidal curve with Hill slope, a to d. x is the inhibitor concentration under test. y is the percent inhibition. a is the limiting response as x approaches zero. As x increases without bound, y tends toward its limit d. c is the inflection point (IC50) for the curve. That is, y is halfway between the lower and upper asymptotes when x=c. b is the slope factor or Hill coefficient.

[7] = tested on: bovine articular cartilage treated with Interleukin 1 alpha (IL-1α); test: Bovine articular cartilage explant cultures: inhibition of degradation of proteoglycan; assay type: cell-based; conditions: inhibitory effect expressed as percentage, concentration not printed
Description: This in vitro procedure was used to evaluate the effect and relative potencies of small molecule compounds to inhibit the degradation of proteoglycan in articular cartilage treated with Interleukin 1 alpha (IL-1α). Treatment of articular cartilage with IL 1α induces expression of a cascade of enzymes that initiates cartilage matrix degradation. This assay was utilized to select small molecule compounds that inhibit the enzyme activity and protects cartilage matrix degradation.
Articular cartilage: bovine metacarpal joints were disinfected with 10% Wescodyne followed by 70% ethanol. 6 mm articular cartilage discs were prepared and rinsed once in PBS and medium, respectively. The discs were cultured in a stirring flask with serum-free medium for 5 days for equilibrium with one medium change. Small molecule compounds: stock solutions of test small molecule compounds (usually at 5 mg/ml) were prepared in DMSO. Working solutions were diluted with DMSO and generally ranged from 0.1 μg/ml to 10 ug/ml. The DMSO stocks were stored at […]. Articular cartilage explant culture medium: DMEM, 2 mM glutamax, 100 U/ml of antibiotic and antimycotic, 50 μg/ml ascorbate and 10 mM Hepes (pH-7.0). Proteoglycan content-Dimethyl methylene blue (DMMB) solution: […] DMMB, 10 ml 100% ethanol, 29.5 ml of 1M NaOH, 3.5 ml of 98% formic acid and water to 1 L. Chondroitin sulphate sodium salt: 1.56-200 ug/ml serial dilutions.
For the explant culture, cartilage discs were cultured in serum-free medium for 48 h or more. Discs were weighed and transferred to a 96-well plate, 1 disc per-well. 0.2 ml of medium containing 5 ng/ml of IL-1 and different concentrations of compounds were added to each well, with 3 wells allocated for each treatment. The medium was collected at days 1, 2, & 3 and replaced accordingly.
For the DMMB assay, conditioned medium (CM) samples were diluted with medium. 10 ul of each standard or diluted sample was added in duplicate into a 96-well-plate and 200 μl of DMMB solution was added into each well. Absorbance at 520 nm was measured for each well. Proteoglycan contents in CM were calculated daily.
The proteoglycan contents are expressed as ug per mg of cartilage. The inhibitory effect of the compounds is expressed as percentage. (See, Tortorella, M. D. et al., Science 1999, 284, 1664-1666).

[8] = Table 1, first of two columns headed bovine
[9] = Table 1, second of two columns headed bovine

## CC(C)(Cc1ccc(F)cc1)NC(=O)C(CCC(=O)O)NC(=O)c1ccc(-c2ccccc2)cc1 (racemic) [Example 8GGGG, N^2-(biphenyl-4-ylcarbonyl)-N^1-[2-(4-fluorophenyl)-1,1-dimethylethyl]-α-glutamine]
[1]
  MMP-1: no inh
[2]
  MMP-14: no inh
[3]
  IC50: 160 nM
[4]
  IC50: > 50000 nM
[5]
  IC50: 30 nM
[6]
  IC50: 18600 nM

## O=C(O)CC[C@H](NC(=O)c1ccc(-c2ccccc2)cc1)C(=O)NC1Cc2ccccc2C1 [Example 6A, N^2-(1,1′-biphenyl-4-ylcarbonyl)-N^1-2,3-dihydro-1H-inden-2-yl-L-α-glutamine]
[1]
  IC50: > 50000 nM
[2]
  IC50: > 200000 nM
[3]
  IC50: 740 nM
[4]
  IC50: > 50000 nM
[5]
  IC50: 150 nM
[6]
  IC50: 29800 nM

## O=C(O)CC[C@H](NC(=O)c1ccc(-c2ccccc2)cc1)C(=O)NCc1ccc(Cl)c(Cl)c1 [Example 8BB, N^2-(1,1′-biphenyl-4-ylcarbonyl)-N^1-(3,4-dichlorobenzyl)-L-α-glutamine]
[1]
  MMP-1: no inh
[2]
  IC50: ~25000 nM
[3]
  IC50: 650 nM
[4]
  IC50: 19000 nM
[5]
  IC50: 74 nM
[6]
  IC50: 2300 nM

## CCC(C)NC(=O)[C@H](CCC(=O)O)NC(=O)c1ccc(-c2ccccc2)cc1 (stereo partly drawn) [Example 8BBB, N^2-(1,1′-biphenyl-4-ylcarbonyl)-N^1-(sec-butyl)-L-α-glutamine]
[1]
  IC50: > 200000 nM
[2]
  MMP-14: no inh
[3]
  IC50: 700 nM
[4]
  IC50: > 50000 nM
[5]
  Ki: 130 nM
  IC50: 32 nM
[7]; [8]
  bovine: 35%
[7]; [9]
  bovine: 0%

## O=C(O)CC[C@H](NC(=O)c1ccc(-c2ccccc2)cc1)C(=O)NCc1ccc(I)cc1 [Example 8LL, N^2-(1,1′-biphenyl-4-ylcarbonyl)-N^1-(4-iodobenzyl)-L-α-glutamine]
[3]
  IC50: 990 nM
[4]
  IC50: 24000 nM
[5]
  IC50: 55 nM
[7]; [8]
  bovine: 40%
[7]; [9]
  bovine: 0%
[6]
  IC50: 50000 nM

## CC(C)(Cc1ccc(Cl)cc1)NC(=O)[C@H](CCC(=O)O)NC(=O)c1ccc(-c2ccccc2)cc1 [Example 8NN, N^2-(biphenyl-4-ylcarbonyl)-N^1-[2-(4-chlorophenyl)-1,1-dimethylethyl]-L-α-glutamine]
[1]
  IC50: > 200000 nM
[2]
  MMP-14: no inh
[3]
  IC50: 133 nM
[4]
  IC50: ~50000 nM
[5]
  Ki: 14 nM
  IC50: < 30 nM
[6]
  IC50: 9000 nM

## CC(C)(Cc1ccccc1)NC(=O)[C@H](CCC(=O)O)NC(=O)c1ccc(-c2ccccc2)cc1 [Example 8PP, N^2-(biphenyl-4-ylcarbonyl)-N^1-(1,1-dimethyl-2-phenylethyl)-L-α-glutamine]
[1]
  IC50: > 200000 nM
[2]
  IC50: > 66600 nM
[3]
  IC50: 85 nM
[4]
  IC50: ~50000 nM
[5]
  Ki: 10 nM
  IC50: < 30 nM
[6]
  IC50: 6000 nM

## O=C(O)CC[C@H](NC(=O)c1ccc(-c2ccccc2)cc1)C(=O)NCCc1ccc(F)cc1 [Example 8SS, N^2-(biphenyl-4-ylcarbonyl)-N^1-[2-(4-fluorophenyl)ethyl]-L-α-glutamine]
[1]
  MMP-1: no inh
[2]
  IC50: > 66600 nM
[3]
  IC50: 800 nM
[4]
  IC50: ~50000 nM
[5]
  IC50: 100 nM
[6]
  IC50: 12400 nM

## CC(C)(C)NC(=O)[C@H](CCC(=O)O)NC(=O)c1ccc(-c2ccccc2)cc1 [Example 8SSS, N^2-(biphenyl-4-ylcarbonyl)-N^1-(tert-butyl)-L-α-glutamine]
[3]
  IC50: 470 nM
[4]
  IC50: > 50000 nM
[5]
  IC50: 64 nM
[6]
  IC50: 10300 nM

## CC(C)(C)CNC(=O)[C@H](CCC(=O)O)NC(=O)c1ccc(-c2ccccc2)cc1 [Example 8UUU, N^2-(biphenyl-4-ylcarbonyl)-N^1-(2,2-dimethylpropyl)-L-α-glutamine]
[1]
  MMP-1: no inh
[2]
  IC50: > 200000 nM
[3]
  IC50: 660 nM
[4]
  IC50: ~50000 nM
[5]
  Ki: 60 nM
  IC50: 61 nM
[6]
  IC50: 8900 nM

## O=C(O)CC[C@H](NC(=O)c1ccc(-c2ccccc2)cc1)C(=O)NCc1cccc(-c2ccccn2)c1 [Example 10Q, N^2-(biphenyl-4-ylcarbonyl)-N^1-(3-pyridin-2-ylbenzyl)-L-α-glutamine]
[1]
  MMP-1: no inh
[2]
  IC50: > 50000 nM
[3]
  IC50: 3000 nM
[4]
  IC50: ~50000 nM
[5]
  IC50: 98 nM

## COc1cccc(CCNC(=O)[C@H](CCC(=O)NO)NC(=O)c2ccc(-c3ccccc3)cc2)c1 [Example 33C, N^2-(1,1′-biphenyl-4-ylcarbonyl)-N^5-hydroxy-N^1-[2-(3-methoxyphenyl)ethyl]-L-α-glutamamide]
[1]
  IC50: 1500 nM
[2]
  IC50: 110 nM
[3]
  IC50: 25 nM
[4]
  IC50: 29 nM
[5]
  IC50: < 10 nM

— patent US7998965B2, “Glutamate aggrecanase inhibitors” (Wyeth LLC, priority 2005, dated 2011)
